Experimental data: PubChem BioAssay AID1259407 (Chemical Carcinogenesis Research Information System (CCRIS), 2018)
Activity calls are given as the source filed them. The rule behind the calls is not given here.

Test system: CCRIS mutagenicity, Ames/micronucleus/aberration tests
Assay: CCRIS mutagenicity studies
[1] = Test System: AMES SALMONELLA TYPHIMURIUM, Strain/Indicator: TA98, Metabolic Activation: NONE, Method: PREINCUBATION
[2] = Test System: AMES SALMONELLA TYPHIMURIUM, Strain/Indicator: TA100, Metabolic Activation: NONE, Method: PREINCUBATION
[3] = Test System: AMES SALMONELLA TYPHIMURIUM, Strain/Indicator: TA1535, Metabolic Activation: NONE, Method: PREINCUBATION
[4] = Test System: AMES SALMONELLA TYPHIMURIUM, Strain/Indicator: TA1537, Metabolic Activation: NONE, Method: PREINCUBATION

O=C=Nc1ccc(Cc2ccc(N=C=O)cc2)cc1
mutagenic call (Test System: AMES SALMONELLA TYPHIMURIUM, Strain/Indicator: TA98, Metabolic Activation: HAMSTER, LIVER, S-9, AROCLOR 1254 (10%), Method: PREINCUBATION): inactive; negative | mutagenic call [1]: inactive; negative | mutagenic call (Test System: AMES SALMONELLA TYPHIMURIUM, Strain/Indicator: TA98, Metabolic Activation: RAT, LIVER, S-9, AROCLOR 1254 (10%), Method: PREINCUBATION): inactive; negative | mutagenic call (Test System: AMES SALMONELLA TYPHIMURIUM, Strain/Indicator: TA98, Metabolic Activation: RAT, LIVER, S-9, KC 500, Method: PREINCUBATION): inactive; negative | mutagenic call (Test System: AMES SALMONELLA TYPHIMURIUM, Strain/Indicator: TA100, Metabolic Activation: HAMSTER, LIVER, S-9, AROCLOR 1254 (10%), Method: PREINCUBATION): inactive; negative | mutagenic call [2]: inactive; negative | mutagenic call (Test System: AMES SALMONELLA TYPHIMURIUM, Strain/Indicator: TA100, Metabolic Activation: RAT, LIVER, S-9, AROCLOR 1254 (10%), Method: PREINCUBATION): inactive; negative | mutagenic call (Test System: AMES SALMONELLA TYPHIMURIUM, Strain/Indicator: TA100, Metabolic Activation: RAT, LIVER, S-9, KC 500, Method: PREINCUBATION): active; positive | mutagenic call (Test System: AMES SALMONELLA TYPHIMURIUM, Strain/Indicator: TA1535, Metabolic Activation: HAMSTER, LIVER, S-9, AROCLOR 1254 (10%), Method: PREINCUBATION): inactive; negative | mutagenic call [3]: inactive; negative | mutagenic call (Test System: AMES SALMONELLA TYPHIMURIUM, Strain/Indicator: TA1535, Metabolic Activation: RAT, LIVER, S-9, AROCLOR 1254 (10%), Method: PREINCUBATION): inactive; negative | mutagenic call (Test System: AMES SALMONELLA TYPHIMURIUM, Strain/Indicator: TA1535, Metabolic Activation: RAT, LIVER, S-9, KC 500, Method: PREINCUBATION): inactive; negative | mutagenic call (Test System: AMES SALMONELLA TYPHIMURIUM, Strain/Indicator: TA1537, Metabolic Activation: HAMSTER, LIVER, S-9, AROCLOR 1254 (10%), Method: PREINCUBATION): inactive; negative | mutagenic call [4]: inactive; negative | mutagenic call (Test System: AMES SALMONELLA TYPHIMURIUM, Strain/Indicator: TA1537, Metabolic Activation: RAT, LIVER, S-9, AROCLOR 1254 (10%), Method: PREINCUBATION): inactive; negative | mutagenic call (Test System: AMES SALMONELLA TYPHIMURIUM, Strain/Indicator: TA1537, Metabolic Activation: RAT, LIVER, S-9, KC 500, Method: PREINCUBATION): inactive; negative | mutagenic call (Test System: AMES SALMONELLA TYPHIMURIUM, Strain/Indicator: TA1538, Metabolic Activation: NONE, Method: PREINCUBATION): inactive; negative | mutagenic call (Test System: AMES SALMONELLA TYPHIMURIUM, Strain/Indicator: TA1538, Metabolic Activation: RAT, LIVER, S-9, KC 500, Method: PREINCUBATION): inactive; negative | mutagenic call (Test System: E. COLI, Strain/Indicator: WP2 UVRA, Metabolic Activation: NONE, Method: PREINCUBATION): inactive; negative | mutagenic call (Test System: E. COLI, Strain/Indicator: WP2 UVRA, Metabolic Activation: RAT, LIVER, S-9, KC 500, Method: PREINCUBATION): inactive; negative

O=C(O)C(=O)O
mutagenic call (Test System: AMES SALMONELLA TYPHIMURIUM, Strain/Indicator: TA97, Metabolic Activation: NONE, Method: PREINCUBATION): inactive; negative | mutagenic call (Test System: AMES SALMONELLA TYPHIMURIUM, Strain/Indicator: TA97, Metabolic Activation: RAT, LIVER, S-9, PHENOBARBITAL AND 5,6-BENZOFLAVONE, Method: PREINCUBATION): inactive; negative | mutagenic call (Test System: AMES SALMONELLA TYPHIMURIUM, Strain/Indicator: TA97, Metabolic Activation: S-9, Method: PREINCUBATION): inactive; negative | mutagenic call [1]: inactive; negative | mutagenic call (Test System: AMES SALMONELLA TYPHIMURIUM, Strain/Indicator: TA98, Metabolic Activation: RAT, LIVER, S-9, PHENOBARBITAL AND 5,6-BENZOFLAVONE, Method: PREINCUBATION): inactive; negative | mutagenic call (Test System: AMES SALMONELLA TYPHIMURIUM, Strain/Indicator: TA98, Metabolic Activation: RAT, LIVER, S-9, SODIUM PHENOBARBITAL AND 5,6-BENZOFLAVONE, Method: PREINCUBATION): inactive; negative | mutagenic call [2]: inactive; negative | mutagenic call (Test System: AMES SALMONELLA TYPHIMURIUM, Strain/Indicator: TA100, Metabolic Activation: NONE, Method: PREINCUBATION (11 HR GROWTH PERIOD FOR BACTERIA)): active; positive | mutagenic call (Test System: AMES SALMONELLA TYPHIMURIUM, Strain/Indicator: TA100, Metabolic Activation: RAT, LIVER, S-9, PCB, Method: PREINCUBATION (11 HR GROWTH PERIOD FOR BACTERIA)): inactive; negative | mutagenic call (Test System: AMES SALMONELLA TYPHIMURIUM, Strain/Indicator: TA100, Metabolic Activation: RAT, LIVER, S-9, PHENOBARBITAL AND 5,6-BENZOFLAVONE, Method: PREINCUBATION): inactive; negative | mutagenic call (Test System: AMES SALMONELLA TYPHIMURIUM, Strain/Indicator: TA100, Metabolic Activation: RAT, LIVER, S-9, SODIUM PHENOBARBITAL AND 5,6-BENZOFLAVONE, Method: PREINCUBATION): inactive; negative | mutagenic call (Test System: AMES SALMONELLA TYPHIMURIUM, Strain/Indicator: TA102, Metabolic Activation: NONE, Method: PREINCUBATION (5, 7 OR 11 HR GROWTH PERIOD FOR BACTERIA)): active; positive | mutagenic call (Test System: AMES SALMONELLA TYPHIMURIUM, Strain/Indicator: TA102, Metabolic Activation: RAT, LIVER, S-9, PCB, Method: PREINCUBATION (5 OR 7 HR GROWTH PERIOD FOR BACTERIA)): inactive; negative | mutagenic call (Test System: AMES SALMONELLA TYPHIMURIUM, Strain/Indicator: TA102, Metabolic Activation: RAT, LIVER, S-9, PHENOBARBITAL AND 5,6-BENZOFLAVONE, Method: PREINCUBATION): inactive; negative | mutagenic call (Test System: AMES SALMONELLA TYPHIMURIUM, Strain/Indicator: TA102, Metabolic Activation: RAT, LIVER, S-9, SODIUM PHENOBARBITAL AND 5,6-BENZOFLAVONE, Method: PREINCUBATION): inactive; negative | mutagenic call (Test System: AMES SALMONELLA TYPHIMURIUM, Strain/Indicator: TA102, Metabolic Activation: S-9, Method: PREINCUBATION): inactive; negative | mutagenic call (Test System: AMES SALMONELLA TYPHIMURIUM, Strain/Indicator: TA104, Metabolic Activation: NONE, Method: PREINCUBATION): inactive; negative | mutagenic call (Test System: AMES SALMONELLA TYPHIMURIUM, Strain/Indicator: TA104, Metabolic Activation: RAT, LIVER, S-9, PHENOBARBITAL AND 5,6-BENZOFLAVONE, Method: PREINCUBATION): inactive; negative | mutagenic call (Test System: AMES SALMONELLA TYPHIMURIUM, Strain/Indicator: TA104, Metabolic Activation: RAT, LIVER, S-9, SODIUM PHENOBARBITAL AND 5,6-BENZOFLAVONE, Method: PREINCUBATION): inactive; negative | mutagenic call [3]: inactive; negative | mutagenic call (Test System: AMES SALMONELLA TYPHIMURIUM, Strain/Indicator: TA1535, Metabolic Activation: RAT, LIVER, S-9, SODIUM PHENOBARBITAL AND 5,6-BENZOFLAVONE, Method: PREINCUBATION): inactive; negative | mutagenic call [4]: inactive; negative | mutagenic call (Test System: AMES SALMONELLA TYPHIMURIUM, Strain/Indicator: TA1537, Metabolic Activation: RAT, LIVER, S-9, SODIUM PHENOBARBITAL AND 5,6-BENZOFLAVONE, Method: PREINCUBATION): inactive; negative | mutagenic call (Test System: E. COLI, Strain/Indicator: WP2UVRA/PKM101, Metabolic Activation: NONE, Method: PREINCUBATION): inactive; negative | mutagenic call (Test System: E. COLI, Strain/Indicator: WP2UVRA/PKM101, Metabolic Activation: RAT, LIVER, S-9, SODIUM PHENOBARBITAL AND 5,6-BENZOFLAVONE, Method: PREINCUBATION): inactive; negative | mutagenic call (Test System: E. COLI, Strain/Indicator: WP2UVRA, Metabolic Activation: NONE, Method: PREINCUBATION): inactive; negative | mutagenic call (Test System: E. COLI, Strain/Indicator: WP2UVRA, Metabolic Activation: RAT, LIVER, S-9, SODIUM PHENOBARBITAL AND 5,6-BENZOFLAVONE, Method: PREINCUBATION): inactive; negative

NCP(=O)(O)O
mutagenic call (End Point: In vitro chromosome aberrations, Test System: Human peripheral blood lymphocytes, Metabolic Activation: None): active; positive (structural changes) | mutagenic call (End Point: In vivo micronucleus, Test System: Bone marrow erythrocytes, Species: Mouse, Strain/Sex: BALB/Male and female, Route: Intraperitoneal): active; positive
